Results: US12458629B2, “Method for treating nonsense mutation mediated duchenne muscular dystrophy in pediatric patients” (PTC THERAPEUTICS, INC., priority 2019, dated 2025)
“And” between values parts separate entries of the source, which are not always exact repeats. Identical values can stand only once. Like-named read-outs stand apart in the source and are kept apart here.

How the values were obtained:
[1] = Ataluren plasma pharmacokinetics, NCT02819557 phase 2 open-label trial (LC-MS/MS); type: in vivo, human; details: for Cmax (0-6 hr) / concentration at 6 h / AUC(0-t) / Tmax: oral 10, 10, 20 mg/kg TID; for concentration at 6 h / AUC(0-t) / Tmax: male, human, plasma; for concentration at 6 h: oral, read-out: Ctrough-6 hr; for AUC(0-t) / Tmax: po, 20 mg/kg; for Tmax: read-out: tmax (0-6 hr)
Procedure: A total dose of 40 mg/kg/day study drug was administered as three divided doses per day. The first dose administered was: 10 mg/kg in the morning, the second dose administered was 10 mg/kg at midday, and the third dose administered was 20 mg/kg in the evening.
Evaluations included blood sampling for gene sequencing, blood sampling for ataluren PK, vital signs, height, weight, physical exam, hematology urinalysis, 12-lead ECG, palatability questionnaire, adverse events (AEs), concomitant medications and non-DMD-related Aes. For single-dose and steady-state plasma concentrations, blood samples were collected pre-dose and at 1, 2, 4, 6, 8, and 10 hours post-dose on Days 1 (Visit 2) and 28 (Visit 3). Ataluren plasma concentrations were determined using a validated liquid chromatography with tandem mass spectrometry (LC-MS/MS) method, with a lower limit of quantification (LOQ) of 0.500 μg/mL. Efficacy evaluations included TFTs and the NSAA, adapted as described below.
Observed values of plasma concentrations for ataluren were summarized at each visit and time point by dose level. Descriptive statistics (n, mean, standard deviation [SD], coefficient of variation [CV %], median, minimum, and maximum) and geometric means and their CV % were calculated. PK parameters (AUC0-6, AUC0-10, Cmax (0-6 hr) Ctrough (0-6 hr), t max (0-6 hr), accumulation ratio (AR) (AUC), AR (Cmax)) were derived using actual sampling and dosing times. Concentrations below the LOQ were set to zero for the calculation of non-compartmental analysis (NCA) parameters.

[2] = system: pediatric patients having nmDMD; assay: North Star Ambulatory Assessment (NSAA), 16-, 8- and 3-item, NCT02819557; type: in vivo, human
Excerpt: Certain assessments on the NSAA 16-point scale were revised to reflect developmental stages for a pediatric patient population, e.g., “Lifts Head” was removed from the total, Items 3 and 8 on the NSAA scales were further revised to detect changes in the pediatric younger age group.^18,22 The same analysis was used for all subjects (n=14).
However, all patients were included in the baseline and week 52 assessments.

[3] = Effective plasma concentration range for maximum benefit by 6 minute walking distance (6 MWD); set-up: species or system human; details: in vivo
Procedure: As used herein, the term “therapeutically effective amount” refers to that amount of ataluren administered to a patient based on patient weight that is sufficient to attain an average plasma concentration in a range of at least about 1 μg/mL to about 20 μg/mL during a 24 hour time period.

boys with nmDMD = details: boys about seven to about 16 years of age with nmDMD, Phase 3 NCT01826487; cited from earlier work
[4] = system: pediatric patients having nmDMD; assay: Timed function tests (TFTs), NCT02819557; type: in vivo, human; details: for decrease in mean time taken to descend 4 stairs (SD): 40 mg/kg/day
Procedure: For timed function tests (TFTs), results summarizing the baseline values (Study Day 1), post-baseline values, and the change from baseline values were analyzed separately for each of the 4 tests, including time taken to i). walk/run 10 meters, ii). Climb 4 stairs, iii). Descend 4 stairs, and iv). Stand from a supine position. The 10 m walk/run test was assessed once. If the time taken to perform a TFT exceeded 30 seconds or if a subject could not perform a TFT due to disease progression, a value of 30 seconds was set for the summary analysis. The time values in seconds were summarized using descriptive statistics: n, mean, SD, median, range, and 95% confidence intervals. Observed values, and changes from baseline in TFTs were summarized accordingly for the evaluable population.

[5] = Day 1 and Day 28, most subjects
[6] = Week 0 - Day 1, arithmetic mean, n=14
[7] = Week 4 - Day 28, arithmetic mean, n=14
[8] = Week 4 - Day 28 vs Day 1, arithmetic mean, n=14

O=C(O)c1cccc(-c2noc(-c3ccccc3F)n2)c1 [ataluren, 3-[5-(2-fluoro-phenyl)-[1,2,4]oxadiazol-3-yl]-benzoic acid]
time of peak concentration post-morning dose (first peak) [1, 5]: approximately 2 hours | time of peak concentration post-morning dose (second peak, 2 hours post midday dose) [1, 5]: ~8 h | drug accumulation across doses ([1]; Day 28 vs Day 1): no apparent accumulation | Cmax (0-6 hr) [1, 6]: 15950 ng/mL | Cmax (0-6 hr) [1, 7]: 12540 ng/mL | AR AUC0-6 (accumulation ratio) [1, 8]: 0.99 | AR Cmax (accumulation ratio) [1, 8]: 1.02 | concentration at 6 h [1, 6]: 9120 ng/mL | concentration at 6 h [1, 7]: 5430 ng/mL | AUC(0-t) ([1]; Week 0 - Day 1, arithmetic mean, n=14, boys ≥2 to <5 years with nmDMD, read-out: AUC0-6): 53000 ng·h/mL | AUC(0-t) ([1]; Week 0 - Day 1, arithmetic mean, n=14, read-out: AUC0-10): 102000 ng·h/mL | Tmax [1, 6]: 3.84 h | AUC(0-t) ([1]; Week 4 - Day 28, arithmetic mean, n=14, read-out: AUC0-6): 43600 ng·h/mL | AUC(0-t) ([1]; Week 4 - Day 28, arithmetic mean, n=14, read-out: AUC0-10): 82100 ng·h/mL | Tmax [1, 7]: 2.72 h | plasma levels and safety in the younger population relative to older children ([1]; ≥2 to <5 yrs vs ≥5 yrs nmDMD populations): similar | 3-item NSAA score, mean (SD) ([2]; Week 28, N=13): 5.8 (±0.38) | 8-item NSAA score, mean (SD) ([2]; Week 28, N=13): 12.1 (+3.12) | 16-item NSAA total score, mean (SD) ([2]; Week 28, N=13): 19.8 (±6.17) and 19.8 (6.17) | 16-item NSAA total score, percent improvement over baseline ([2]; Week 28, N=13): 24.88% and 24.88 (27.203) % | 3-item NSAA score, percent improvement over baseline ([2]; Week 28 vs baseline 5.4): 10.26% | 8-item NSAA score, percent improvement over baseline ([2]; Week 28 vs baseline 10.5): 15.14% | 16-item NSAA total score, improvement over baseline ([2]; Week 28 vs baseline 16.2, N=13): 3.5 (±3.43) points | 3-item NSAA score, mean (SD) ([2]; Week 52, N=14): 5.6 (+0.63) | 8-item NSAA score, mean (SD) ([2]; Week 52, N=14): 12.8 (+3.12) | 16-item NSAA total score, mean (SD) ([2]; Week 52, N=14): 21.5 (±6.48) and 21.5 (6.48) | 16-item NSAA total score, percent improvement over baseline ([2]; Week 52, N=14): 36.63% and 36.63 (29.956) % | 3-item NSAA score, percent improvement over baseline ([2]; Week 52 vs baseline 5.4): 6.31% | 8-item NSAA score, percent improvement over baseline ([2]; Week 52 vs baseline 10.5): 23.31% | 16-item NSAA total score, improvement over baseline ([2]; Week 52 vs baseline 16.0, N=14): 5.5 (±4.43) points | time post morning dose at which the effective plasma concentration range is typically found [3]: ≤ 2 h | tolerability (boys with nmDMD): generally well tolerated | Timed Function Test assessments, change from baseline ([4]; all four TFTs over the 52-week study period): overall improvements from baseline | mean reduction from baseline, 10 m walk/run time ([4]; week 28, 13 patients): 0.8 (±1.54) seconds | mean percent improvement (SD), time to climb 4 stairs ([4]; week 28 vs baseline): 9.10 (±29.63) percent and 9.10 (29.630) percent | mean percent improvement (SD), time to descend 4 stairs ([4]; week 28 vs baseline): 7.17 (±26.43) percent and 7.17 (26.433) percent | mean percent improvement, 10 m walk/run ([4]; week 28 vs baseline): 8.35% and 8.35 (22.778) % | reduction in mean time to climb 4 stairs ([4]; week 28 vs baseline, N=13): 1.8 (±4.85) seconds | decrease in mean time taken to descend 4 stairs (SD) ([4]; week 28 vs mean baseline of 7.1 seconds, 12 patients): 0.6 (±1.93) seconds | mean reduction from baseline, 10 m walk/run time ([4]; week 52, 14 patients): 1.1 (±1.35) seconds | mean percent improvement (SD), time to climb 4 stairs ([4]; week 52 vs baseline): 23.36 (±26.25) percent and 23.36 (26.249) percent | mean percent improvement (SD), time to descend 4 stairs ([4]; week 52 vs baseline): 24.22 (±28.32) percent and 24.22 (28.322) percent | mean percent improvement, 10 m walk/run ([4]; week 52 vs baseline): 14.54% and 14.54 (14.862) % | reduction in mean time to climb 4 stairs ([4]; week 52 vs baseline, N=14): 2.6 (±5.0) seconds | decrease in mean time taken to descend 4 stairs (SD) ([4]; week 52 vs mean baseline of 7.5 seconds, 13 patients): 2.2 (±2.58) seconds | mean improvement from baseline in stand from supine position assessment, week 28 compared with week 52 ([4]; weeks 28 (N=13) and 52 (N=14)): similar
